Measurements: patent US8574563B2 (Bristol-Myers Squibb Company, priority 2006, dated 2013)

test system: HCV 1b-377-neo replicon cells; assay: HCV replicon assay, HCV 1b-377-neo replicon cells (1b FRET); assay type: cell-based, Hepatitis C virus genotype 1b; settings: Hepatitis C virus, HCV 1b-377-neo replicon cells; HCV 1b genotype; read-out: EC50 range against HCV 1b (Table 2, Range)
How it was run: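 Compounds tested in HCV genotype 1b-377-neo replicon cells with a FRET read-out. Cells resistant to a reference NS5A inhibitor through a Y2065H NS5A mutation were run alongside wild-type cells.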

Question: With `COC(=O)N[C@@H](C(=O)N1CCC[C@H]1c1ncc(-c2ccc(-c3ccc(-c4cnc([C@@H]5CCCN5C(=O)c5snnc5-c5ccccc5)[nH]4)cc3)cc2)[nH]1)c1ccccc1` [Example 84-10, methyl ((1R)-2-oxo-1-phenyl-2-((2S)-2-(5-(4′-(2-((2S)-1-((4-phenyl-1,2,3-thiadiazol-5-yl)carbonyl)-2-pyrrolidinyl)-1H-imidazol-5-yl)-4-biphenylyl)-1H-imidazol-2-yl)-1-pyrrolidinyl)ethyl)carbamate] as the compound, how does the EC50 read?
Answer: 1000 to 99000 pM

Question: With `COC(=O)N[C@@H](Cc1ccncc1)C(=O)N1CCC[C@H]1c1ncc(-c2ccc(-c3ccc(-c4cnc([C@@H]5CCCN5C(=O)[C@@H](NC(=O)OC)C(C)C)[nH]4)cc3)cc2)[nH]1` [cj-88, methyl ((1S)-2-((2S)-2-(5-(4′-(2-((2S)-1-((2S)-2-((methoxycarbonyl)amino)-3-methylbutanoyl)-2-pyrrolidinyl)-1H-imidazol-5-yl)-4-biphenylyl)-1H-imidazol-2-yl)-1-pyrrolidinyl)-2-oxo-1-(4-pyridinylmethyl)ethyl)carbamate] as the compound, how does the EC50 read?
Answer: 1 to 999 pM

Question: Which EC50 does the source give for `CC[C@H](NC(=O)OC)C(=O)N1CCC[C@H]1c1ncc(-c2ccc(-c3ccc(-c4cnc([C@@H]5CCCN5C(=O)[C@@H](NC(=O)OC)C(C)C)[nH]4)cc3)cc2)[nH]1` [Example M74, methyl ((1S)-1-(((2S)-2-(5-(4′-(2-((2S)-1-((2S)-2-((methoxycarbonyl)amino)butanoyl)-2-pyrrolidinyl)-1H-imidazol-5-yl)-4-biphenylyl)-1H-imidazol-2-yl)-1-pyrrolidinyl)carbonyl)-2-methylpropyl)carbamate] here?
Answer: 1000 to 99000 pM

Question: Which EC50 does the source give for `CCN(CC)[C@@H](C(=O)N1CCC[C@H]1c1ncc(-c2ccc(-c3ccc(-c4cnc([C@@H]5CCCN5C(=O)[C@@H](NC(=O)OC)C5CC5)[nH]4)cc3)cc2)[nH]1)c1ccccc1` [Example M57, methyl ((1S)-1-cyclopropyl-2-((2S)-2-(5-(4′-(2-((2S)-1-((2R)-2-(diethylamino)-2-phenylacetyl)-2-pyrrolidinyl)-1H-imidazol-5-yl)-4-biphenylyl)-1H-imidazol-2-yl)-1-pyrrolidinyl)-2-oxoethyl)carbamate] here?
Answer: 1000 to 99000 pM

Question: How did the EC50 turn out when `COC(=O)N[C@H](C(=O)N1CCC[C@H]1c1ncc(-c2ccc(-c3ccc(-c4cnc([C@@H]5CCCN5C(=O)[C@H]5CCCC[C@H]5NC(=O)OC)[nH]4)cc3)cc2)[nH]1)C(C)C` [cj-93, methyl ((1S)-1-(((2S)-2-(5-(4′-(2-((2S)-1-(((1S,2R)-2-((methoxycarbonyl)amino)cyclohexyl)carbonyl)-2-pyrrolidinyl)-1H-imidazol-5-yl)-4-biphenylyl)-1H-imidazol-2-yl)-1-pyrrolidinyl)carbonyl)-2-methylpropyl)carbamate] was run?
Answer: 1 to 999 pM

Question: `COC(=O)N[C@@H](C(=O)N1CCC[C@H]1c1ncc(-c2ccc(-c3ccc(-c4nc([C@@H]5CCCN5C(=O)[C@H](NC(=O)OC)c5ccccc5)[nH]c4C)cc3)cc2)[nH]1)c1ccccc1` [Example E5c, methyl ((1R)-2-((2S)-2-(4-(4′-(2-((2S)-1-((2R)-2-((methoxycarbonyl)amino)-2-phenylacetyl)-2-pyrrolidinyl)-1H-imidazol-4-yl)-4-biphenylyl)-5-methyl-1H-imidazol-2-yl)-1-pyrrolidinyl)-2-oxo-1-phenylethyl)carbamate] was tested. Which EC50 did it give?
Answer: 1 to 999 pM

Question: `COC(=O)N[C@@H](C(=O)N1CCC[C@H]1c1ncc(-c2ccc(-c3ccc(-c4cnc([C@@H]5CCCN5C(=O)CN(C)C)[nH]4)cc3)cc2)[nH]1)c1ccccc1` [Example 37, methyl ((1R)-2-((2S)-2-(5-(4′-(2-((2S)-1-(N,N-dimethylglycyl)-2-pyrrolidinyl)-1H-imidazol-5-yl)-4-biphenylyl)-1H-imidazol-2-yl)-1-pyrrolidinyl)-2-oxo-1-phenylethyl)carbamate] was tested. Which EC50 did it give?
Answer: 1 to 999 pM
